In patent US20080216197A1, “Polypeptide Having Function Related to Pyridoxine Biosynthesis, Polynucleotide Coding the Polypeptide, and Those Use” (Genomine, Inc., priority 2005, published 2008):
Where a name gives a salt, the structure may show the parent alone.

Key:
Arabidopsis thaliana = assay: PPT treatment of T2 plants grown in Petri dishes (segregation check); assay type: in vivo; settings: 12.5 mg/L PPT
[1] = test system: mutant Arabidopsis thaliana; assay: Phenotype recovery of mutant T2 plants on pyridoxine-supplemented MS medium; assay type: in vivo; settings: 2.5 mg/L pyridoxine-HCl in MS medium, 30 seeds/Petri dish, slight etiolation observed, FIG. 7
Experimental: The analysis of the AtPDX5 domain led to the inference that the AtPDX5 gene might have an enzymatic function involved in the pyridoxine biosynthesis pathway. To examine this, T2 plants of the mutant Arabidopsis thaliana were cultured in Petri dishes containing a 2.5 mg/L pyridoxine-HCl (Sigma, USA)-supplemented MS medium (30 seeds/Petri dish). […] In addition, the etiolation of the mutant plants was believed to be attributed to a low content of pyridoxine in the medium. Based on the fact that the phenotype recovery was induced by the addition of pyridoxine, the AtPDX5 gene is concluded to be directly responsible for pyridoxine biosynthesis. As described hereinbefore, T2 plants of the mutant Arabidopsis thaliana have the phenotype properties of significant growth delay, etiolation throughout leaves, and death in an early stage, and the mutant Arabidopsis thaliana can have the same phenotype as that of the wild-type in the presence of pyridoxine.

Structure (SMILES)	effect on the five plants having a wild-type phenotype (Arabidopsis thaliana)	effect on the other 25 plants (etiolation and retarded growth phenotype) (Arabidopsis thaliana)	phenotype (growth delay) of the mutant versus the wild-type [1]
CP(=O)(O)CC[C@H](N)C(=O)O [PPT, phosphinothricin]	converted to a fatal phenotype	remained unchanged	
Cc1ncc(CO)c(CO)c1O [pyridoxine-HCl, 2-methyl-3-hydroxy-4,5-di(hydroxymethyl)pyridine]			no significant difference in phenotype
